Measurements taken from PubChem BioAssay (NCI).
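Tested at 5 concentrations; 48 h exposure; 96-well plates; endpoints linearly interpolated, else capped at highest concentration. Abbreviation: GI50, concentration required for 50% inhibition of growth. Definition used: TGI = concentration required for complete inhibition of growth.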

Tests used:
Experiment in all cases: NCI-60 cell line screen, 48 h
[1] = test system: 786-0 renal
[2] = test system: A498 renal
[3] = test system: ACHN renal
[4] = test system: BT-549 breast
[5] = test system: CAKI-1 renal
[6] = test system: CCRF-CEM leukemia
[7] = test system: COLO 205 colon
[8] = test system: DU-145 prostate
[9] = test system: EKVX NSCLC
[10] = test system: HCC-2998 colon
[11] = test system: HCT-116 colon
[12] = test system: HCT-15 colon
[13] = test system: HL-60(TB) leukemia
[14] = test system: HOP-62 NSCLC
[15] = test system: HOP-92 NSCLC
[16] = test system: HS 578T breast
[17] = test system: HT29 colon
[18] = test system: IGROV1 ovarian
[19] = test system: K-562 leukemia
[20] = test system: KM12 colon
[21] = test system: LOX IMVI melanoma
[22] = test system: M14 melanoma
[23] = test system: MALME-3M melanoma
[24] = test system: MCF7 breast
[25] = test system: MDA-MB-231 breast
[26] = test system: MDA-MB-435
[27] = test system: MOLT-4 leukemia
[28] = test system: NCI-H226 lung
[29] = test system: NCI-H460 lung
[30] = test system: NCI-H522 lung
[31] = test system: NCI/ADR-RES ovarian
[32] = test system: OVCAR-3 ovarian
[33] = test system: OVCAR-4 ovarian
[34] = test system: OVCAR-5 ovarian
[35] = test system: OVCAR-8 ovarian
[36] = test system: PC-3 prostate
[37] = test system: RPMI-8226 leukemia
[38] = test system: RXF 393 renal
[39] = test system: SF-268 CNS
[40] = test system: SF-295 CNS
[41] = test system: SF-539 CNS
[42] = test system: SK-MEL-2 melanoma
[43] = test system: SK-MEL-28 melanoma
[44] = test system: SK-MEL-5 melanoma
[45] = test system: SK-OV-3 ovarian
[46] = test system: SN12C renal
[47] = test system: SNB-19 CNS
[48] = test system: SNB-75 CNS
[49] = test system: SR leukemia
[50] = test system: SW-620 colon
[51] = test system: T-47D breast
[52] = test system: TK-10 renal
[53] = test system: U251 CNS
[54] = test system: UACC-257 melanoma
[55] = test system: UACC-62 melanoma
[56] = test system: UO-31 renal
[57] = test system: A549 NSCLC
[58] = test system: NCI-H23 lung

COc1cc2c(Oc3ccc4[nH]c(C)cc4c3F)ccnc2cc1OCC1(N)CC1
GI50 [1]: 1020 nM | TGI [1]: 3460 nM | GI50 [2]: 2200 nM | TGI [2]: 19700 nM | GI50 [3]: 2050 nM | TGI [3]: 12500 nM | GI50 [4]: 1300 nM | TGI [4]: 3960 nM | GI50 [5]: 1040 nM | TGI [5]: 6990 nM | GI50 [6]: 1570 nM | TGI [6]: 12900 nM | GI50 [7]: 2290 nM | TGI [7]: 5610 nM | GI50 [8]: 3670 nM | TGI [8]: > 100000 nM | GI50 [9]: 2790 nM | TGI [9]: > 100000 nM | GI50 [10]: 2360 nM | TGI [10]: 11800 nM | GI50 [11]: 745 nM | TGI [11]: 10600 nM | GI50 [12]: 854 nM | TGI [12]: 13500 nM | GI50 [13]: 382 nM | TGI [13]: 1950 nM | GI50 [14]: 1590 nM | TGI [14]: 35600 nM | GI50 [15]: 1030 nM | TGI [15]: 7110 nM | GI50 [16]: 759 nM | TGI [16]: 3290 nM | GI50 [17]: 874 nM | TGI [17]: 3300 nM | GI50 [18]: 1160 nM | TGI [18]: 13000 nM | GI50 [19]: 416 nM | TGI [19]: 12300 nM | GI50 [20]: 1240 nM | TGI [20]: 12500 nM | GI50 [21]: 1260 nM | TGI [21]: 3200 nM | GI50 [22]: 1020 nM | TGI [22]: 2530 nM | GI50 [23]: 1210 nM | TGI [23]: 3030 nM | GI50 [24]: 484 nM | TGI [24]: 24600 nM | GI50 [25]: 1800 nM | TGI [25]: 4610 nM | GI50 [26]: 310 nM | TGI [26]: 1210 nM | GI50 [27]: 971 nM | TGI [27]: 14000 nM | GI50 [28]: 894 nM | TGI [28]: 14900 nM | GI50 [29]: 908 nM | TGI [29]: 6840 nM | GI50 [30]: 1270 nM | TGI [30]: 3460 nM | GI50 [31]: 2310 nM | TGI [31]: > 100000 nM | GI50 [32]: 809 nM | TGI [32]: 24700 nM | GI50 [33]: 4220 nM | TGI [33]: > 100000 nM | GI50 [34]: 3370 nM | TGI [34]: 10300 nM | GI50 [35]: 2920 nM | TGI [35]: > 100000 nM | GI50 [36]: 1360 nM | TGI [36]: 13400 nM | GI50 [37]: 2100 nM | TGI [37]: 5950 nM | GI50 [38]: 671 nM | TGI [38]: 4220 nM | GI50 [39]: 1390 nM | TGI [39]: 12900 nM | GI50 [40]: 1070 nM | TGI [40]: 3920 nM | GI50 [41]: 315 nM | TGI [41]: 1810 nM | GI50 [42]: 1680 nM | TGI [42]: 3790 nM | GI50 [43]: 1410 nM | TGI [43]: 2950 nM | GI50 [44]: 967 nM | TGI [44]: 2240 nM | GI50 [45]: 3610 nM | TGI [45]: 80200 nM | GI50 [46]: 1780 nM | TGI [46]: 7560 nM | GI50 [47]: 1640 nM | TGI [47]: 28100 nM | GI50 [48]: 651 nM | TGI [48]: 2460 nM | GI50 [49]: 395 nM | TGI [49]: 4310 nM | GI50 [50]: 757 nM | TGI [50]: 11800 nM | GI50 [51]: 3640 nM | TGI [51]: 28500 nM | GI50 [52]: 7890 nM | TGI [52]: 26200 nM | GI50 [53]: 674 nM | TGI [53]: 7150 nM | GI50 [54]: 1670 nM | TGI [54]: 3630 nM | GI50 [55]: 1640 nM | TGI [55]: 3790 nM | GI50 [56]: 864 nM | TGI [56]: 3690 nM

COc1cc2c(cc1OCCCCCCN1CCN(c3ncnc4ccccc34)CC1)N=CC1CCCN1C2=O (configuration not stated)
GI50 [1]: 141 nM | TGI [1]: 649 nM | GI50 [2]: 150 nM | TGI [2]: 344 nM | GI50 [57]: 275 nM | TGI [57]: 5550 nM | GI50 [3]: 345 nM | TGI [3]: 12300 nM | GI50 [4]: 42.2 nM | TGI [4]: 227 nM | GI50 [5]: 33.1 nM | TGI [5]: 436 nM | GI50 [6]: 26 nM | TGI [6]: 302 nM | GI50 [7]: 17.6 nM | TGI [7]: 134 nM | GI50 [8]: 120 nM | TGI [8]: 548 nM | GI50 [9]: 354 nM | TGI [9]: 2010 nM | GI50 [10]: 191 nM | TGI [10]: 520 nM | GI50 [11]: 55 nM | TGI [11]: 282 nM | GI50 [12]: 493 nM | TGI [12]: 2390 nM | GI50 [13]: 78.2 nM | GI50 [14]: 290 nM | TGI [14]: 3820 nM | GI50 [15]: 45.6 nM | TGI [15]: 408 nM | GI50 [16]: 88.7 nM | TGI [16]: 666 nM | GI50 [17]: 44.9 nM | TGI [17]: 919 nM | GI50 [18]: 60.2 nM | TGI [18]: 209 nM | GI50 [19]: 44.6 nM | GI50 [20]: 116 nM | TGI [20]: 375 nM | GI50 [21]: 31.9 nM | TGI [21]: 1000 nM | GI50 [22]: 171 nM | TGI [22]: 1220 nM | GI50 [23]: 158 nM | TGI [23]: 376 nM | GI50 [24]: < 22.2 nM | TGI [24]: 597 nM | GI50 [25]: 42.5 nM | TGI [25]: 394 nM | GI50 [26]: 90.5 nM | TGI [26]: 252 nM | GI50 [27]: 37.8 nM | TGI [27]: 203 nM | GI50 [28]: 125 nM | TGI [28]: 330 nM | GI50 [58]: 204 nM | TGI [58]: 677 nM | GI50 [29]: 110 nM | TGI [29]: 728 nM | GI50 [30]: < 14.5 nM | TGI [30]: 135 nM | GI50 [31]: 899 nM | GI50 [32]: 33.6 nM | TGI [32]: 88 nM | GI50 [33]: 130 nM | TGI [33]: 2050 nM | GI50 [34]: 290 nM | TGI [34]: 13400 nM | GI50 [35]: 188 nM | GI50 [36]: 50.8 nM | TGI [36]: 742 nM | GI50 [37]: < 20.7 nM | TGI [37]: 103 nM | GI50 [38]: 146 nM | TGI [38]: 325 nM | GI50 [39]: 201 nM | TGI [39]: 3480 nM | GI50 [40]: 50.8 nM | TGI [40]: 1030 nM | GI50 [41]: 109 nM | TGI [41]: 402 nM | GI50 [42]: 195 nM | TGI [42]: 1830 nM | GI50 [43]: 193 nM | TGI [43]: 510 nM | GI50 [44]: 139 nM | TGI [44]: 287 nM | GI50 [45]: 637 nM | TGI [45]: 7470 nM | GI50 [46]: 155 nM | TGI [46]: 6470 nM | GI50 [47]: 208 nM | TGI [47]: 3540 nM | GI50 [48]: 40.7 nM | TGI [48]: 256 nM | GI50 [49]: < 17.4 nM | TGI [49]: < 32.1 nM | GI50 [50]: 93.5 nM | TGI [50]: 566 nM | GI50 [51]: 23.7 nM | TGI [51]: 79.2 nM | GI50 [52]: 155 nM | TGI [52]: 1880 nM | GI50 [53]: 73.6 nM | TGI [53]: 1050 nM | GI50 [54]: 237 nM | TGI [54]: 14100 nM | GI50 [55]: 143 nM | TGI [55]: 326 nM
